The source of these data is patent publication US20260043803A1, “MEANS FOR DETECTING S[…]” (ACADEMISCH ZIEKENHUIS LEIDEN (H.O.D.N. LUMC), priority 2022, published 2026).

Experiment [1] relates to IgG antibodies. The experiment is described as follows: Microarray, serum IgG binding to printed CAA structures, controlled human infection samples. The note with it: three individual sera, FIG. 14. The text has this: (§1) Immunopurified native schistosome CAA, synthetic di-, tetra-, hexa-, and octasaccharides with appropriate positive and negative controls were printed in triplicates onto epoxilane coated glass slides (Nexterion Slide E, Schott 1066643) with a MicroGrid robot (BioRobotics). See general methodology in (de Boer, Hokke et al. 2007).
(§2) Microarrays with fitted silicone gaskets (64 samples/slide) were reconstituted in 1×PBS and blocked for minimum one hour (PBS, 2% bovine serum albumin (Sigma-Aldrich A3059) with 50 mM ethanolamine (>99.5%, Sigma-Aldrich 411000)) on shaker. Each array washed in PBS Tween 0.05%, PBS and 30 ul serum sample 1:100 in buffer/array added for 1 hour incubation at room temperature on shaker. Arrays were then washed (as above) and 1:1000 detection antibodies added (goat anti-human IgG-Cy-3, Sigma-Aldrich C2571; goat anti-human IgM-AF647, Invitrogen, A21249) for 30 min room temperature incubation on shaker. Finally, slides were washed as above with an additional wash in milli-Q before they were spun dry and scanned (Agilent Scan Control™ 2006). […]
(§3) Microarray scan images were obtained through Agilent Feature Extraction 10.7.3.1 and imported into GenePixPro vs7. Spot morphology quality was inspected and median fluorescence intensity (MFI) values obtained per nanodot with an average of a triplicate per target used for analyses. […]

Experiment [2] deals with IgM antibodies. The experiment is described as follows: Microarray, serum IgM binding to printed CAA structures, controlled human infection samples. The conditions noted are these: individual level, infection with 10, 20, 30 cercariae; FIG. 3-5.
From the text: as §1
Microarrays with fitted silicone gaskets (64 samples/slide) were reconstituted in 1×PBS and blocked for minimum one hour (PBS, 2% bovine serum albumin (Sigma-Aldrich A3059) with 50 mM ethanolamine (>99.5%, Sigma-Aldrich 411000)) on shaker. Each array washed in PBS Tween 0.05%, PBS and 30 ul serum sample 1:100 in buffer/array added for 1 hour incubation at room temperature on shaker. Arrays were then washed (as above) and 1:1000 detection antibodies added (goat anti-human IgG-Cy-3, Sigma-Aldrich C2571; goat anti-human IgM-AF647, Invitrogen, A21249) for 30 min room temperature incubation on shaker. Finally, slides were washed as above with an additional wash in milli-Q before they were spun dry and scanned (Agilent Scan Control™ 2006). For nasosorption samples, they were incubated as above with the following changes. Samples were eluted in PBS 1% BSA 0.05% Triton-X and incubated as 1:2 dilution. For detection goat anti-human IgA-Dylight 650 (Novus NBP 1-75754) was used in 500×dilution.
(§4) Microarray scan images were obtained through Agilent Feature Extraction 10.7.3.1 and imported into GenePixPro vs7. Spot morphology quality was inspected and median fluorescence intensity (MFI) values obtained per nanodot with an average of a triplicate per target used for analyses. Further data processing was done in Microsoft Excel and graphs were generated using GraphPad Prism 9.3.1.

Experiment [3] has as its system IgA antibodies. In words: Microarray, IgA binding in nasosorption samples, controlled human infection. The conditions noted are these: 20 cercariae, baseline and 8 weeks post infection; FIG. 10.
From the text: as §1, §2, §3

Experiment [4] deals with IgA antibodies. The experiment is described as follows: Microarray, IgA binding in serum samples, controlled human infection. The note with it: 20 cercariae, n=7, eight weeks post infection; FIG. 9.
From the text: as §1
Microarrays with fitted silicone gaskets (64 samples/slide) were reconstituted in 1×PBS and blocked for minimum one hour (PBS, 2% bovine serum albumin (Sigma-Aldrich A3059) with 50 mM ethanolamine (>99.5%, Sigma-Aldrich 411000)) on shaker. Each array washed in PBS Tween 0.05%, PBS and 30 ul serum sample 1:100 in buffer/array added for 1 hour incubation at room temperature on shaker. […] Finally, slides were washed as above with an additional wash in milli-Q before they were spun dry and scanned (Agilent Scan Control™ 2006). […] Samples were eluted in PBS 1% BSA 0.05% Triton-X and incubated as 1:2 dilution. […]
as §4

Turning to “6-aminohexyl 2-acetamido-2-deoxy-3-O-(3-D-glucoronic acid)-6-O-(2-acetamido-2-deoxy-3-O-(3-D-glucuronic acid)-6-O-(2-acetamido-2-deoxy-3-O-(β-D-glucuronic acid)-6-O-(2-acetamido-2-deoxy-3-O-(3-D-glucuronic acid)-6-O-(2-acetamido-2-deoxy-3-O-(3-D-glucuronic acid)-β-D-galactopyranose)-β-D-galactopyranose)-3-D-galactopyranose-β-D-galactopyranose [CAA decasaccharide]”, the “IgG response at week 8 after infection” value in experiment [1] (20 male S. mansoni cercariae) is reported as “equal or stronger than to shorter CAA fragments”. The IgG pre-infection response result in experiment [1] (prior to infection) is “negligible”.

On to `CC(=O)NC1C(O[C@@H]2OC(C(=O)O)[C@@H](O)C(O)C2O)[C@@H](O)C(CO)O[C@H]1OCCCCCCN` (stereo partly drawn) [disaccharide, 6-aminohexyl 2-acetamido-2-deoxy-3-O-(β-D-glucoronic acid)-β-D-galactopyranose], for which the “IgM response pattern compared with native CAA” value in experiment [2] is “not representative of CAA”.

Take `CC(=O)NC1C(O[C@@H]2OC(C(=O)O)[C@@H](O)C(O)C2O)[C@@H](O)C(CO)O[C@H]1OCC1O[C@@H](OCC2O[C@@H](OCC3O[C@@H](OCCCCCCN)C(NC(C)=O)C(O[C@@H]4OC(C(=O)O)[C@@H](O)C(O)C4O)[C@H]3O)C(NC(C)=O)C(O[C@@H]3OC(C(=O)O)[C@@H](O)C(O)C3O)[C@H]2O)C(NC(C)=O)C(O[C@@H]2OC(C(=O)O)[C@@H](O)C(O)C2O)[C@H]1O` (some centres unmarked) [octasaccharide]: the “detection of specific IgA in nasosorption samples” value in experiment [3] is on record as “detectable”. The “IgM background at baseline (specificity)” value in experiment [2] is on record as “improves further”. In experiment [4], the “detection of specific IgA in serum” value is reported as “detection”.

As for `CC(=O)NC1C(O[C@@H]2OC(C(=O)O)[C@@H](O)C(O)C2O)[C@@H](O)C(CO)O[C@H]1OCC1O[C@@H](OCCCCCCN)C(NC(C)=O)C(O[C@@H]2OC(C(=O)O)[C@@H](O)C(O)C2O)[C@H]1O` (stereo partly drawn) [tetrasaccharide, 6-aminohexyl 2-acetamido-2-deoxy-3-O-(β-D-glucoronic acid)-6-O-(2-acetamido-2-deoxy-3-O-(β-D-glucuronic acid)-β-D-galactopyranose)-β-D-galactopyranose], in experiment [2], the “IgM background at baseline (specificity)” value is recorded as “too high” and the “IgM response pattern compared with native CAA” value is on record as “a dynamic range resembling native material is starting to appear”.
